Results: paper PMC7168327, “Designed Antimicrobial Peptides for Topical Treatment of Antibiotic Resistant Acne Vulgaris” (Antibiotics, 2020)
≈ marks a conversion by molar mass, not a printed value. Square brackets hold non-standard residues; d marks the D form. Peptide text beside a SMILES is read from it. Orn = NCCC[C@H](N)C(=O)O

How the values were obtained:
C. acnes HL013PA1 [1] = settings: cited from earlier work
Text: (§1) Table 1 Growth Inhibition of dAMPs (MICs, µg/mL) against C. acnes Isolates. | column: Antibiotic Sensitivity / Tetra ^#; Antibiotic Sensitivity / Ery ^#; Antibiotic Sensitivity / Clind ^#

C. acnes HL053PA1 [2] = settings: cited from earlier work
Text: as §1

C. acnes HL043PA1 [3] = settings: cited from earlier work
Text: as §1

C. acnes HL043PA2 [4] = settings: cited from earlier work
Text: as §1

C. acnes ATCC6919 [5] = settings: cited from earlier work
Text: as §1

C. acnes ATCC11827 [6] = settings: cited from earlier work
Text: as §1

C. acnes HL072PA1 [7] = settings: cited from earlier work
Text: as §1

C. acnes HL045PA1 [8] = settings: cited from earlier work
Text: as §1

C. acnes HL038PA1 [9] = settings: cited from earlier work
Text: as §1

C. acnes HL082PA2 [10] = settings: cited from earlier work
Text: as §1

C. acnes HL056PA1 [11] = settings: cited from earlier work
Text: as §1

C. acnes HL007PA1 [12] = settings: cited from earlier work
Text: as §1

C. acnes HL013PA1 [13] = format: cell-based, Cutibacterium acnes; settings: HL013PA1, 48 h
Procedure: (§2) The ten antibiotic resistant C. acnes clinical isolates were acquired from BEI resources with the two reference strains obtained from American Type Culture Collection (ATCC, Manassas, VA, USA). C. acnes is a relatively slow-growing, typically aerotolerant anaerobic so all in vitro C. acnes experiments were performed under anaerobic conditions.
(§3) Single colonies were inoculated in Reinforced Clostridium Medium (RCM) broth supplemented with sodium thioglycolate and incubated at 37 °C, with shaking at 200 rpm, for 2 or 3 days to reach logarithmic growth (OD600nm = 1.0). Each C. acnes (1 × 10^6 CFU per mL) was incubated with dAMP or clindamycin at two-fold serial dilutions (0.5–32 μg per mL) in RCM on a 96-well microplate for 48 h. Three replicas were included for each test article concentration. Bacterial growth was measured by optical density at 600 nm to determine the MIC for each dAMP applied.

C. acnes HL053PA1 [14] = format: cell-based, Cutibacterium acnes; settings: HL053PA1, 48 h
Procedure: as §2, §3

C. acnes HL043PA1 [15] = format: cell-based, Cutibacterium acnes; settings: HL043PA1, 48 h
Procedure: as §2, §3

C. acnes HL043PA2 [16] = format: cell-based, Cutibacterium acnes; settings: HL043PA2, 48 h
Procedure: as §2, §3

C. acnes ATCC6919 [17] = format: cell-based, Cutibacterium acnes; settings: ATCC6919, 48 h
Procedure: as §2, §3

C. acnes ATCC11827 [18] = format: cell-based, Cutibacterium acnes; settings: ATCC11827, 48 h
Procedure: as §2, §3

C. acnes HL072PA1 [19] = format: cell-based, Cutibacterium acnes; settings: HL072PA1, 48 h
Procedure: as §2, §3

C. acnes HL045PA1 [20] = format: cell-based, Cutibacterium acnes; settings: HL045PA1, 48 h
Procedure: as §2, §3

C. acnes HL038PA1 [21] = format: cell-based, Cutibacterium acnes; settings: HL038PA1, 48 h
Procedure: as §2, §3

C. acnes HL082PA2 [22] = format: cell-based, Cutibacterium acnes; settings: HL082PA2, 48 h
Procedure: as §2, §3

C. acnes HL056PA1 [23] = format: cell-based, Cutibacterium acnes; settings: HL056PA1, 48 h
Procedure: as §2, §3

[24] = test system: ten C. acnes clinical isolates and two C. acnes ATCC reference strains; format: cell-based, Cutibacterium acnes; settings: for in vitro anti-bacterial activity against the C. acnes bacterial strains (in words): 0.5–32 μg/mL concentration range evaluated; for MIC values against all C. acnes isolates: ten clinical isolates and two ATCC reference strains, 48 h
Procedure: as §2, §3

C. acnes HL007PA1 [25] = format: cell-based, Cutibacterium acnes; settings: HL007PA1, 48 h
Procedure: as §2, §3

[26] = test system: bioluminescent human immortalized keratinocytes (HaCaT); assay: Mammalian cytotoxicity, bioluminescent human keratinocytes; format: cell-based; settings: 8 h
Procedure: (§4) Noninvasive and real-time monitoring of mammalian cytotoxicity to assess the potential skin toxicity of the dAMPs was evaluated using bioluminescent human immortalized keratinocytes (HaCaT, AddexBio, San Diego, CA, USA). The bioluminescent variant of HaCaT was constructed by transfection with a luciferase gene (RediFect Red-Fluc-Puromycin, Cat# CL596002). Keratinocytes (1 × 10^4 cells, 100 μL) were plated in 96-well black-walled plates. The candidate dAMPs were 2-fold serially diluted from 1024 µg/mL in growth medium supplemented with 150 µg/mL D-luciferin. Each concentration was performed in triplicate, with the final volume being 200 μL. Imaging was performed at select times (0, 15, and 30 min and 1, 3, 5, and 8 h) after the addition of the dAMP, and compared to concurrently run vehicle-control, using an IVIS Lumina imaging system (Caliper Life Sciences, Inc., Hopkinton, MA, USA). For imaging, the 96-well plate was positioned on the stage (12.5-cm field of view), with an open emission filter, binning of 4, and f-stop 1 and a 1-min exposure time. Data analysis was performed using the Living Image software program (version 4.3, Caliper Life Sciences, Inc.). The dAMP concentrations required to kill 10% and 50% of keratinocytes were determined using GraphPad Prism 7 (GraphPad Software, San Diego, CA, USA).

[27] = test system: C. acnes HL043PA2 compared to human keratinocytes; format: cell-based; settings: 8 h
Procedure: In evaluating the clinical utility of each of the candidate dAMPs for C. acnes treatment, the Therapeutic Index was determined. The Therapeutic Index is defined as the ratio of concentration at which the dAMP is active against the prokaryotic C. acnes pathogen without inducing cytotoxic damage to the surrounding mammalian cells. The EC10 and EC50 doses, defined as the concentrations required to kill 10% and 50% respectively of human keratinocytes following 8 h incubation with each of the Riptide dAMPs, are tabulated and graphed in Table 2 and Figure 3, respectively. The larger the Therapeutic Index, the greater the specificity of the dAMP for destroying C. acnes cells.
as §3, §4

| MIC (C. acnes HL013PA1 [13]) | MIC (C. acnes HL053PA1 [14]) | MIC (C. acnes HL043PA1 [15]) | MIC (C. acnes HL043PA2 [16]) | MIC (C. acnes ATCC6919 [17]) | MIC (C. acnes ATCC11827 [18]) | MIC (C. acnes HL072PA1 [19]) | MIC (C. acnes HL045PA1 [20]) | MIC (C. acnes HL038PA1 [21]) | MIC (C. acnes HL082PA2 [22]) | MIC (C. acnes HL056PA1 [23]) | MIC values against all C. acnes isolates [24] | MIC (C. acnes HL007PA1 [25]) | SMILES | in vitro anti-bacterial activity against the C. acnes bacterial strains (in words) [24] | EC50, concentration required to kill 50% of human keratinocytes [26] | Therapeutic Index (EC10 / MIC) [27] | Therapeutic Index (EC50 / MIC) [27] | further results |
| --- | --- | --- | --- | --- | --- | --- | --- | --- | --- | --- | --- | --- | --- | --- | --- | --- | --- | --- |
| – | – | – | – | – | – | – | – | – | – | – | – | – | CC[C@H]1OC(=O)[C@H](C)[C@@H](O[C@H]2C[C@@](C)(OC)[C@@H](O)[C@H](C)O2)[C@H](C)[C@@H](O[C@@H]2O[C@H](C)C[C@H](N(C)C)[C@H]2O)[C@](C)(O)C[C@@H](C)C(=O)[C@H](C)[C@@H](O)[C@]1(C)O [Ery, erythromycin] | – | – | – | – | Antibiotic Sensitivity, Ery (C. acnes HL013PA1 [1]): R (erythromycin resistance MIC ≥ 0.5 μg/mL); Antibiotic Sensitivity, Ery (C. acnes HL053PA1 [2]): R (erythromycin resistance MIC ≥ 0.5 μg/mL); Antibiotic Sensitivity, Ery (C. acnes HL043PA1 [3]): R (erythromycin resistance MIC ≥ 0.5 μg/mL); Antibiotic Sensitivity, Ery (C. acnes HL043PA2 [4]): R (erythromycin resistance MIC ≥ 0.5 μg/mL); Antibiotic Sensitivity, Ery (C. acnes ATCC6919 [5]): S (S, sensitive); Antibiotic Sensitivity, Ery (C. acnes ATCC11827 [6]): S (S, sensitive); Antibiotic Sensitivity, Ery (C. acnes HL072PA1 [7]): R (erythromycin resistance MIC ≥ 0.5 μg/mL); Antibiotic Sensitivity, Ery (C. acnes HL045PA1 [8]): R (erythromycin resistance MIC ≥ 0.5 μg/mL); Antibiotic Sensitivity, Ery (C. acnes HL038PA1 [9]): R (erythromycin resistance MIC ≥ 0.5 μg/mL); Antibiotic Sensitivity, Ery (C. acnes HL082PA2 [10]): R (erythromycin resistance MIC ≥ 0.5 μg/mL); Antibiotic Sensitivity, Ery (C. acnes HL056PA1 [11]): R (erythromycin resistance MIC ≥ 0.5 μg/mL); Antibiotic Sensitivity, Ery (C. acnes HL007PA1 [12]): R (erythromycin resistance MIC ≥ 0.5 μg/mL) |
| 2 µg/mL (≈ 0.714 µM) | 2 µg/mL (≈ 0.714 µM) | 2 µg/mL (≈ 0.714 µM) | 2 µg/mL (≈ 0.714 µM) | 2 µg/mL (≈ 0.714 µM) | 2 to 4 µg/mL | 2 to 4 µg/mL | 2 µg/mL (≈ 0.714 µM) | 2 µg/mL (≈ 0.714 µM) | 2 µg/mL (≈ 0.714 µM) | 2 µg/mL (≈ 0.714 µM) | 2 to 8 µg/mL | 2 µg/mL (≈ 0.714 µM) | CC[C@H](C)[C@H](NC(=O)[C@H](Cc1ccccc1)NC(=O)[C@H](CCCN)NC(=O)[C@H](CCCCN)NC(=O)[C@H](Cc1ccccc1)NC(=O)[C@H](CCCN)NC(=O)[C@H](CCCCN)NC(=O)[C@H](C)NC(=O)[C@H](Cc1ccccc1)NC(=O)[C@H](CCCCN)NC(=O)[C@H](CCCN)NC(=O)[C@@H](NC(=O)[C@@H](N)Cc1ccccc1)[C@@H](C)CC)C(=O)N[C@@H](CCCN)C(=O)N[C@@H](CCCCN)C(=O)N[C@@H](Cc1ccccc1)C(=O)N[C@@H](C)C(=O)N[C@@H](CCCCN)C(=O)N[C@@H](Cc1ccccc1)C(=O)N[C@@H](C)C(=O)N[C@@H](Cc1ccccc1)C(=O)N[C@@H](C)C(=O)N[C@@H](Cc1ccccc1)C(N)=O [RP551] (H-FI[Orn]KFAK[Orn]FK[Orn]FI[Orn]KFAKFAFAF-NH2) | most active | 34.3 µg/mL | 8.3 | 17.2 | – |
| 4 µg/mL (≈ 1.51 µM) | 4 µg/mL (≈ 1.51 µM) | 4 µg/mL (≈ 1.51 µM) | 8 µg/mL (≈ 3.02 µM) | 2 µg/mL (≈ 0.755 µM) | 8 µg/mL (≈ 3.02 µM) | 8 µg/mL (≈ 3.02 µM) | 4 µg/mL (≈ 1.51 µM) | 4 µg/mL (≈ 1.51 µM) | 2 µg/mL (≈ 0.755 µM) | 4 µg/mL (≈ 1.51 µM) | 2 to 8 µg/mL | 4 µg/mL (≈ 1.51 µM) | C[C@H](NC(=O)[C@H](Cc1ccccc1)NC(=O)[C@H](C)NC(=O)[C@H](Cc1ccccc1)NC(=O)[C@H](CCCN)NC(=O)[C@H](C)NC(=O)[C@H](Cc1ccccc1)NC(=O)[C@H](CCCN)NC(=O)[C@H](CCCN)NC(=O)[C@H](C)NC(=O)[C@H](Cc1ccccc1)NC(=O)[C@H](CCCN)NC(=O)[C@H](CCCN)NC(=O)[C@H](Cc1ccccc1)NC(=O)[C@H](CCCN)NC(=O)[C@H](CCCN)NC(=O)[C@H](C)NC(=O)[C@H](Cc1ccccc1)NC(=O)[C@H](CCCN)NC(=O)[C@H](CCCN)NC(=O)[C@H](C)NC(=O)[C@@H](N)Cc1ccccc1)C(=O)N[C@@H](Cc1ccccc1)C(N)=O [RP444] (H-FA[Orn][Orn]FA[Orn][Orn]F[Orn][Orn]FA[Orn][Orn]FA[Orn]FAFAF-NH2) | most active | 20 µg/mL | 1.63 | 2.5 | – |
